Test results published in patent US20120010075A1 (priority 2009, published 2012).

Experiments:
[1] = tested on: Leptosphaeria nodorum (LEPTNO); assay: In vitro fungitoxicity of hydrazones with and without copper towards Leptosphaeria nodorum (Example 26); assay type: cell-based; settings: compound 0.05 μg/mL, 72 h at 25° C.; for inhibition of growth at 0.05 µg/mL: Parastagonospora nodorum, 72 h, copper-minus medium, read-out: LEPTNO % Inhn. Minus Copper Observed; for LEPTNO % Inhn. Plus Copper Observed: copper-plus medium (CuCl2.2H2O)
Phytophthora infestans = assay type: in vivo, Phytophthora infestans on tomato; settings: hydrazone 50 ppm + 50 μM CuCl2.2H2O, applied 24 h before inoculation, assessed 7 days after inoculation, tomato
[2] = tested on: Leptosphaeria nodorum (LEPTNO); assay: Isolated metal-hydrazone complexes versus parent hydrazones, in vitro, Leptosphaeria nodorum (Example 31, Table 7); assay type: cell-based; settings: Parastagonospora nodorum; 0.1 μg/mL; copper-minus medium; 72 h

Row | SMILES | inhibition of growth at 0.05 µg/mL [1] | LEPTNO % Inhn. Plus Copper Observed [1] | TLB % Control (Phytophthora infestans) | inhibition at 0.1 µg/mL [2] | melting point
1 | C/C(=N\NC(=O)c1ccccc1Cl)c1cc(Cl)cc(Cl)c1O [Example 67] | 2.6% | 91.8% | 75.0% | 4.2% | 
2 | O=C(N/N=C/c1cc(Cl)cc(Cl)c1O)c1ccc(Cl)cc1 [Example 68] | 15.8% | 97.0% | 75.9% | 7.1% | 
3 | C/C(=N\NC(=O)c1cccc(Cl)c1)c1cc(Cl)cc(Cl)c1O [Example 135] | 0.2% | 98.6% | 96.0% | 20.6% | 245 to 246 °C
4 | C/C(=N\NC(=O)c1ccc(Cl)cc1)c1cc(Cl)cc(Cl)c1O [Example 136] | 9.7% | 98.6% | 95.0% | 34.7% | 260 to 262 °C
5 | C/C(=N\NC(=O)c1ccccc1C)c1cc(Cl)cc(Cl)c1O [Example 137] | 4.5% | 98.5% | 74.0% | 27.2% | 226 to 230 °C
6 | O=C(N/N=C/c1cc(Cl)cc(Br)c1O)c1ccccc1 [Example 151] | 11.8% | 97.6% | 83.0% | 30.9% | 
7 | O=C(N/N=C/c1cc(Cl)cc(Br)c1O)c1ccc(Cl)cc1 [Example 159] | 11.4% | 98.5% | 91.9% | 27.4% | 
8 | O=C(N/N=C/c1cc(Cl)ccc1O)c1ccc(Cl)cc1 [Example 172] | 13.2% | 97.9% | 27.1% | 28.7% | 
9 | O=C(N/N=C/c1cc(Cl)cc(Br)c1O)c1ccccc1O [Example 195] | 19.2% | 97.9% | 89.5% | 21.7% | 
10 | O=C(N/N=C/c1cccc(Cl)c1O)c1ccccc1 [Example 231] | 0% | 98.5% | 81.3% | 10.7% | 188 to 189 °C
11 | O=C(N/N=C/c1ccc(Cl)cc1O)c1ccccc1 [Example 233] | 5.6% | 98.1% | 88.1% | 8.4% | 
12 | O=C(N/N=C/c1c(O)cccc1Cl)c1ccccc1 [Example 236] | 3.5% | 97.0% | 88.1% | 4.7% | 247 to 248 °C
13 | O=C(N/N=C/c1ccc(Cl)c(Cl)c1O)c1ccccc1 [Example 238] | 0.5% | 97.6% | 92.5% | 20% | 249 to 252 °C
